Experimental data published in PubChem BioAssay AID2060605 (Molecular Pharmacology Branch, DTP, NCI, 2025).

Test system: 947758-054-R-J2-PDC spheroid growth, percent test/control
Assay: Anticancer human tumor 947758-054-R-J2-PDC patient-derived colon adenocarcinoma cell line growth inhibition [CLK]
Settings: spheroids with HUVEC and MSC; for IC50: curve of first compound; for viability, T/C: stronger effect = lower value; active = viability on the fitted dose curve at most 10% of control; inactive = the rest
Summary of the method: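 Patient-derived tumor cells grown as complex spheroids with HUVEC endothelial cells and mesenchymal stem cells, treated with drug combinations. Concentrations descend in half-log steps from near clinical Cmax, or from 10 microM if Cmax unknown.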

[1] = second compound 0.0316 µM, first compound 0.0316 µM
[2] = second compound 0.0316 µM, first compound 0.1 µM
[3] = second compound 0.1 µM, first compound 0.0316 µM
[4] = second compound 0.1 µM, first compound 0.1 µM
[5] = second compound 0.316 µM, first compound 0.0316 µM
[6] = second compound 0.316 µM, first compound 0.1 µM
[7] = second compound 1 µM, first compound 0.0316 µM
[8] = second compound 1 µM, first compound 0.1 µM
[9] = second compound 3.16 µM, first compound 0.0316 µM
[10] = second compound 3.16 µM, first compound 0.1 µM
[11] = second compound 10 µM, first compound 0.0316 µM
[12] = second compound 10 µM, first compound 0.1 µM
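Note: spheroids exposed to compounds for one week before readout.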
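Throughout, for viability, T/C: 100% = DMSO vehicle control wells.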

CC(Nc1ccc2c(c1)OCCn1cc(N3C(=O)OCC3C(F)F)nc1-2)C(N)=O (centres undefined) + CN1CCN(c2cc(C(=O)Nc3cc4cc(-c5cnn(C)c5)ccc4cn3)ccn2)CC1
> 10000 nM: IC50 (second compound 0.0316 µM)
< 31.6 nM: IC50 (second compound 0.316 µM) | IC50 (second compound 1 µM) | IC50 (second compound 3.16 µM) | IC50 (second compound 10 µM)
active: viability, T/C [5] 5.46% | viability, T/C [6] 4.48% | viability, T/C (second compound 0.316 µM, first compound 0.316 µM) 4.7% | viability, T/C (second compound 0.316 µM, first compound 1 µM) 3.14% | viability, T/C (second compound 0.316 µM, first compound 3.16 µM) 3.86% | viability, T/C (second compound 0.316 µM, first compound 10 µM) 1.64% | viability, T/C [7] 0.13% | viability, T/C [8] 0.18% | viability, T/C (second compound 1 µM, first compound 0.316 µM) 0.13% | viability, T/C (second compound 1 µM, first compound 1 µM) 0.11% | viability, T/C (second compound 1 µM, first compound 3.16 µM) 0.11% | viability, T/C (second compound 1 µM, first compound 10 µM) 0.2% | viability, T/C [9] 0.24% | viability, T/C [10] 0.19% | viability, T/C (second compound 3.16 µM, first compound 0.316 µM) 0.25% | viability, T/C (second compound 3.16 µM, first compound 1 µM) 0.22% | viability, T/C (second compound 3.16 µM, first compound 3.16 µM) 0.31% | viability, T/C (second compound 3.16 µM, first compound 10 µM) 0.26% | viability, T/C [11] 0.35% | viability, T/C [12] 0.5% | viability, T/C (second compound 10 µM, first compound 0.316 µM) 0.84% | viability, T/C (second compound 10 µM, first compound 1 µM) 0.31% | viability, T/C (second compound 10 µM, first compound 3.16 µM) 1.57% | viability, T/C (second compound 10 µM, first compound 10 µM) 0.63%
inactive: viability, T/C [1] 138% | viability, T/C [2] 153% | viability, T/C (second compound 0.0316 µM, first compound 0.316 µM) 137% | viability, T/C (second compound 0.0316 µM, first compound 1 µM) 88.2% | viability, T/C (second compound 0.0316 µM, first compound 3.16 µM) 94.5% | viability, T/C (second compound 0.0316 µM, first compound 10 µM) 74.2% | viability, T/C [3] 165% | viability, T/C [4] 127% | viability, T/C (second compound 0.1 µM, first compound 0.316 µM) 45.4% | viability, T/C (second compound 0.1 µM, first compound 1 µM) 39.6% | viability, T/C (second compound 0.1 µM, first compound 3.16 µM) 44.5% | viability, T/C (second compound 0.1 µM, first compound 10 µM) 29.6%
297 nM: IC50 (second compound 0.1 µM)

Cn1ncnc1[C@H]1c2n[nH]c(=O)c3cc(F)cc(c23)N[C@@H]1c1ccc(F)cc1 + CNC(=O)c1ccc(Nc2nc(OC3CCCC3)c3c(-c4ccc5nc(C)oc5c4)c[nH]c3n2)c(OC)c1
< 0.316 nM: IC50 (second compound 1 µM) | IC50 (second compound 3.16 µM) | IC50 (second compound 10 µM)
36.7 nM: IC50 (second compound 0.316 µM)
inactive: viability, T/C (second compound 0.0316 µM, first compound 0.000316 µM) 78.7% | viability, T/C (second compound 0.0316 µM, first compound 0.001 µM) 102% | viability, T/C (second compound 0.0316 µM, first compound 0.00316 µM) 84.3% | viability, T/C (second compound 0.0316 µM, first compound 0.01 µM) 96.9% | viability, T/C [1] 90.4% | viability, T/C [2] 82.6% | viability, T/C (second compound 0.1 µM, first compound 0.000316 µM) 96.5% | viability, T/C (second compound 0.1 µM, first compound 0.001 µM) 88.6% | viability, T/C (second compound 0.1 µM, first compound 0.00316 µM) 81.3% | viability, T/C (second compound 0.1 µM, first compound 0.01 µM) 90.8% | viability, T/C [3] 84.8% | viability, T/C [4] 58.9% | viability, T/C (second compound 0.316 µM, first compound 0.000316 µM) 69.7% | viability, T/C (second compound 0.316 µM, first compound 0.001 µM) 65% | viability, T/C (second compound 0.316 µM, first compound 0.00316 µM) 70.4% | viability, T/C (second compound 0.316 µM, first compound 0.01 µM) 77.9% | viability, T/C [5] 51.4% | viability, T/C [6] 40.5% | viability, T/C (second compound 1 µM, first compound 0.000316 µM) 46.1% | viability, T/C (second compound 1 µM, first compound 0.001 µM) 45.1% | viability, T/C (second compound 1 µM, first compound 0.00316 µM) 42.3% | viability, T/C (second compound 1 µM, first compound 0.01 µM) 49.3% | viability, T/C [7] 46% | viability, T/C [8] 24.6% | viability, T/C (second compound 3.16 µM, first compound 0.000316 µM) 38.9% | viability, T/C (second compound 3.16 µM, first compound 0.001 µM) 31.4% | viability, T/C (second compound 3.16 µM, first compound 0.00316 µM) 38.4% | viability, T/C (second compound 3.16 µM, first compound 0.01 µM) 42.6% | viability, T/C [9] 38.6% | viability, T/C [10] 28.7% | viability, T/C (second compound 10 µM, first compound 0.000316 µM) 33.4% | viability, T/C (second compound 10 µM, first compound 0.001 µM) 31.8% | viability, T/C (second compound 10 µM, first compound 0.00316 µM) 32.9% | viability, T/C (second compound 10 µM, first compound 0.01 µM) 48% | viability, T/C [11] 28.9% | viability, T/C [12] 26.8%
> 100 nM: IC50 (second compound 0.0316 µM) | IC50 (second compound 0.1 µM)
